Reference: US6924353B2, “Inhibitors for RNA viruses” (priority 2003, dated 2005)
Entries after “also recorded” stand apart in the source; their conditions may differ. Where no end group is shown, it is not given here.

Experiments:
RSV = assay: Infectivity inhibition by natural and synthetic RIP, RSV in HEp2; format: cell-based, respiratory syncytial virus; settings: 10 μg/ml; for Log TCID/50: six days
Protocol: (§1) Infectivity Inhibition of RNA Viruses by Synthetic RIP: For comparison, the natural and the synthetic RIPs were tested in cell cultures infected with different RNA viruses. The cell line MA 104 was used for infecting rotavirus SA 11 strain. HEp2 cells were used for infecting RSV and PIV3 viruses. The cells were infected in serial dilutions from 10^−2 to 10^−8; three wells were used for each dilution. After absorption of the virus, the cultures were divided into three groups. Group one received medium containing PBS as a positive control, group two received medium containing 10 μg/ml of natural RIP, and for the remaining group the medium was incorporated with 10 μg/ml synthetic RIP. The tests were read after six days and TCID/50 were calculated from CPE.
The approved drug ribovirin was tested for RSV virus in HEp2 cells at 10 μg/ml concentration. […] Synthetic RIP should be more inhibitory by increasing the concentration.

rotavirus strain SA 11 = assay: Biological activity of trypsin fragments and synthetic versions, MA104 cells infected with rotavirus; format: cell-based; settings: tested at 20, 10, 5, 2.5, and 1.0 μg/ml
Protocol: Biological Activity of Fragments: Initially, the inhibitory activity of the fragments was tested on African green monkey kidney cells MA104 infected with rotavirus strain SA 11. Dulbecco Modified Eagle's Medium (DMEM) containing 10% newborn calf serum (NBCS), L-glutamine and the antibiotics penicillin and streptomycin was used to grow MA 104 and HEp2 cells into monolayers after being monodispersed with a mixture of trypsin/EDTA. The same medium without serum, containing 1 μg/ml trypsin, designated as “special medium,” was used after infecting MA 104 cells with SA 11 virus including the controls. Initially, each fraction was tested on monolayers of MA 104 cells grown in 48 well plates and infected at 10^−2 dilution of SA 11 virus. Before infecting, MA 104 cells were washed with serum free medium. The virus was allowed to absorb for 1 hour at 37° C. in a humid CO2 incubator. After absorption, 0.9 ml of medium was added to each well. Each fraction was tested at the concentration of 20, 10, 5, 2.5, and 1.0 μg/ml. Cells infected with virus received PBS to serve as positive controls, for virus CPE. The tests were read after six days.
The sequencing and synthesis was contracted out to the Protein Core Laboratory of Baylor College of Medicine, Houston, Tex.

rotavirus SA 11 strain = assay: Infectivity inhibition by natural and synthetic RIP, rotavirus in MA 104; format: cell-based; settings: 10 μg/ml; for Log TCID/50: six days
Protocol: as §1

PIV3 = assay: Infectivity inhibition by natural and synthetic RIP, PIV3 in HEp2; format: cell-based, human parainfluenza type 3; settings: 10 μg/ml
Protocol: as §1

Molecule: NC(=O)c1ncn([C@@H]2O[C@H](CO)[C@@H](O)[C@H]2O)n1 [ribovirin, reference compound]
- Log TCID/50 (RSV): 5.4 Log TCID/50

Molecule: A K A G S (AKAGS; SYNTHESIZED. CORRESPONDS TO POSITIONS 1-5 OF SEQ. ID. NO. 2) [SEQ. ID. NO.: 5, synthetic version, five amino acids]
- antiviral activity (inhibition of rotavirus) of fragment and synthetic versions (rotavirus strain SA 11): good results

Molecule: A K A G S D N T K G G V Y P M (ALAGSDNTKGGVYPM; SYNTHESIZED. CORRESPONDS TO POSITIONS 1-15 OF SEQ. ID. NO. 2) [SEQ. ID. NO.: 3, synthetic version, 15 amino acids]
- antiviral activity (inhibition of rotavirus) of fragment and synthetic versions (rotavirus strain SA 11): effective; also recorded: good results

Molecule: AKAGSDNTKG [synthetic RIP]
- antiviral activity (inhibition of rotavirus) of fragment and synthetic versions (rotavirus strain SA 11; listed as SEQ. ID. NO.: 4): most active domain; also recorded: good results
- antiviral activity (inhibition of rotavirus) of fragment and synthetic versions (rotavirus strain SA 11; listed as SEQ. ID. No.: 4): the most inhibition
- Log Inhibition of infectivity (RSV): 1.7 Log
- Log TCID/50 (RSV): 5.8 Log TCID/50
- Log TCID/50 (RSV; listed as Syn RIP): 4.5 Log TCID/50
- Log Inhibition of infectivity (rotavirus SA 11 strain): 1.9 Log
- Log TCID/50 (rotavirus SA 11 strain): 4.5 Log TCID/50
- Log TCID/50 (rotavirus SA 11 strain; listed as Syn RIP): 4.3 Log TCID/50
- Log Inhibition of infectivity (PIV3): 2.0 Log
- Log TCID/50 (PIV3; six days): 5.8 Log TCID/50

Molecule: AKAGSDNTKGGVYPMFGM [SEQ ID. NO.: 2]
- antiviral activity (inhibition of rotavirus) of fragment and synthetic versions (rotavirus strain SA 11): most active fragment
- antiviral activity (inhibition of rotavirus) of fragment and synthetic versions (rotavirus strain SA 11; listed as SEQ. ID. NO.: 2): effective; also recorded: good results
